# Article PMC10388363, “Novel 1,4-Dihydropyridines as Specific Binders and Activators of SIRT3 Impair Cell Viability and Clonogenicity and Downregulate Hypoxia-Induced Targets in Cancer Cells” (Journal of Medicinal Chemistry, 2023)
# Read-outs that look alike come from different tables or passages of the source.
# Columns and labels:
# [1] = test system: acK68- and acK122-MnSOD in MDA-MB-231 cells; assay: Western blot of MnSOD acK68 and acK122 marks in MDA-MB-231 cells; format: cell-based, human; conditions: 4 h, MDA-MB-231
# Procedure: (§1) K68-MnSOD acetylation promotes a transformation-permissive phenotype, leading to a chemotherapy-resistant breast cancer cell model using cisplatin and doxorubicin.[68] […] The specific SIRT3 inhibitor 3-TYP was utilized as negative control.
# (§2) Breast cancer cell line MDA-MB-231, anaplastic thyroid cancer cell line CAL-62 and human keratinocytes HaCaT were purchased from ATCC and were cultured in RPMI 1640 medium (R0883 Sigma Aldrich-MERCK) (MDA-MB-231 and CAL-62) or DMEM medium (11965092, Gibco) supplemented with 10% fetal bovine serum (Sigma-Aldrich-MERCK, F9665), 2 mM glutamine (G7513; Sigma-Aldrich-MERCK), 100 units/mL penicillin and 0.1 mg/mL streptomycin (P0781; Sigma-Aldrich-MERCK). Adherent cells were detached by Trypsin–EDTA solution (TA049; Sigma-Aldrich-MERCK). Cells were maintained at 37 °C in humidified incubator with 5% CO2. Cells were treated with […] (CoCl2) (Merck; C8661) dissolved in distilled, sterile water for 24 h to induce hypoxia (200 μM). […]
# The following antibodies were used in this study: ACTB (Merck; A5316), HIF1-α (Cell Signaling; 14179), HIF2/EPAS-1 (Santa Cruz Biotechnology sc-13596), HXKII (Santa Cruz Biotechnology sc-6521), CAIX (Novus Biotechnology NB100-417), SIRT3 (Cell Signaling; 2627S), MnSOD (Abcam ab13533), MnSOD K68 (Abcam ab137037), MnSOD K122 (Abcam ab214675), peroxidase-conjugated AffiniPure Goat Anti-Rabbit IgG (H + L) (Jackson ImmunoResearch; 111-035-003), and peroxidase-conjugated AffiniPure Goat Anti-Mouse IgG (H + L) (Jackson ImmunoResearch; 115-035-062).
# (§3) Treated and untreated cells were collected and centrifuged at 3000 rpm for 5 min. […] Protein concentration was determined by the Bradford assay (Bio-Rad; 500-0205). […] After three more washes in PBST, the detection of the relevant protein was assessed by enhanced chemiluminescence (Lite Ablot TURBO, Euro-Clone; EMP012001). […]
# CAL-62 cells = assay: Cell viability / cell death, trypan blue exclusion, CAL-62; format: cell-based; conditions: for IC50: read-out: IC50 cell viability reduction
# MDA-MB-231 cells = assay: Cell viability / cell death, trypan blue exclusion, MDA-MB-231; format: cell-based, human
# [2] = Cell viability / cell death in healthy HaCaT cells; format: cell-based, human; conditions: human, HaCaT cells (healthy keratinocytes), HaCaT
# Procedure: Breast cancer cell line MDA-MB-231, anaplastic thyroid cancer cell line CAL-62 and human keratinocytes HaCaT were purchased from ATCC and were cultured in RPMI 1640 medium (R0883 Sigma Aldrich-MERCK) (MDA-MB-231 and CAL-62) or DMEM medium (11965092, Gibco) supplemented with 10% fetal bovine serum (Sigma-Aldrich-MERCK, F9665), 2 mM glutamine (G7513; Sigma-Aldrich-MERCK), 100 units/mL penicillin and 0.1 mg/mL streptomycin (P0781; Sigma-Aldrich-MERCK). Adherent cells were detached by Trypsin–EDTA solution (TA049; Sigma-Aldrich-MERCK). Cells were maintained at 37 °C in humidified incubator with 5% CO2. Cells were treated with […] (CoCl2) (Merck; C8661) dissolved in distilled, sterile water for 24 h to induce hypoxia (200 μM). […] SIRT3 inhibitor 3-TYP was dissolved in DMSO and added to a final concentration of 1 μM for 24 and/or 48 h.
# Cell viability was assessed by the trypan blue exclusion assay. At the end of treatments, cells were harvested and stained with 0,4% trypan blue (Merck; T8154). The cell suspension was applied to a hemocytometer and counted with phase contrast microscopy (NIKON EclipseTE2000U, Nikon Netherlands, Amsterdam, The Netherlands).
# [3] = test system: acK68- and acK122-MnSOD in CAL-62 cells; assay: Western blot of MnSOD acK68 and acK122 marks in CAL-62 cells; format: cell-based; conditions: 50 μM, 4 h, CAL-62
# Procedure: as §1, §2, §3
smiles,measurement,setting,value
"CCOC(=O)C1=CN(C(=O)c2cc(OC)cc(OC)c2)C=C(C(=O)OCC)C1c1ccccc1 [Compound 3d, Diethyl 1-(3,5-dimethoxybenzoyl)-4-phenyl-1,4-dihydropyridine-3,5-dicarboxylate]",acK122-MnSOD deacetylation,[1]; 10 μM,significant acK122 deacetylation
same,ratio acK68- or acK122-MnSOD/MnSOD,[1]; 50 μM,decrease
same,Cell death (%) T24,"CAL-62 cells; CAL-62, 5 μM, 24 h","14,3%"
same,Cell death (%) T48,"CAL-62 cells; CAL-62, 5 μM, 48 h","21,7%"
same,Cell death (%) T24,"CAL-62 cells; CAL-62, 10 μM, 24 h","20,4%"
same,Cell death (%) T24,"CAL-62 cells; CAL-62, 25 μM, 24 h","25,6%"
same,Cell death (%) T48,"CAL-62 cells; CAL-62, 25 μM, 48 h","66,1%"
same,higher efficacy in hypoxia than in normoxia (cell viability reduction and cell death induction),"CAL-62 cells; CAL-62, 48 h",4.8 fold
same,IC50,"CAL-62 cells; Homo sapiens, CAL-62, 48 h, hypoxia",~3.5 µM
same,IC50,"CAL-62 cells; Homo sapiens, CAL-62, 48 h, normoxia",~16.7 µM
same,viability at 5 µM,"CAL-62 cells; Homo sapiens, CAL-62, 5 μM, 24 h, read-out: Cell viability (%) T24",85.7%
same,viability at 5 µM,"CAL-62 cells; Homo sapiens, CAL-62, 5 μM, 48 h, read-out: Cell viability (%) T48",78.3%
same,viability at 10 µM,"CAL-62 cells; Homo sapiens, CAL-62, 10 μM, 48 h, read-out: Cell viability (%) T48",63.5%
same,viability at 25 µM,"CAL-62 cells; Homo sapiens, CAL-62, 25 μM, 24 h, read-out: Cell viability (%) T24",74.4%
same,viability at 25 µM,"CAL-62 cells; Homo sapiens, CAL-62, 25 μM, 48 h, read-out: Cell viability (%) T48",33.8%
same,viability at 5 µM,"MDA-MB-231 cells; Homo sapiens, MDA-MB-231, 5 μM, 24 h, read-out: Cell viability (%) T24",74.1%
same,viability at 5 µM,"MDA-MB-231 cells; Homo sapiens, MDA-MB-231, 5 μM, 48 h, read-out: Cell viability (%) T48",51.7%
same,viability at 10 µM,"MDA-MB-231 cells; Homo sapiens, MDA-MB-231, 10 μM, 24 h, read-out: Cell viability (%) T24",56.2%
same,viability at 25 µM,"MDA-MB-231 cells; Homo sapiens, MDA-MB-231, 25 μM, 24 h, read-out: Cell viability (%) T24",42.8%
same,viability at 25 µM,"MDA-MB-231 cells; Homo sapiens, MDA-MB-231, 25 μM, 48 h, read-out: Cell viability (%) T48",21.1%
same,Cell death (%) T24,"MDA-MB-231 cells; MDA-MB-231, 5 μM, 24 h","25,9%"
same,Cell death (%) T48,"MDA-MB-231 cells; MDA-MB-231, 5 μM, 48 h","48,3%"
same,Cell death (%) T24,"MDA-MB-231 cells; MDA-MB-231, 10 μM, 24 h","43,8%"
same,Cell death (%) T24,"MDA-MB-231 cells; MDA-MB-231, 25 μM, 24 h","57,2%"
same,Cell death (%) T48,"MDA-MB-231 cells; MDA-MB-231, 25 μM, 48 h","78,8%"
same,"viability at 24 h, 5 µM","[2]; 5 μM, 24 h, read-out: Cell viability (%) T24",96.1%
same,"viability at 48 h, 5 µM","[2]; 5 μM, 48 h, read-out: Cell viability (%) T48",83.9%
same,"viability at 24 h, 10 µM","[2]; 10 μM, 24 h, read-out: Cell viability (%) T24",91.6%
same,"viability at 48 h, 10 µM","[2]; 10 μM, 48 h, read-out: Cell viability (%) T48",66.1%
same,"viability at 24 h, 25 µM","[2]; 25 μM, 24 h, read-out: Cell viability (%) T24",84.7%
same,"viability at 48 h, 25 µM","[2]; 25 μM, 48 h, read-out: Cell viability (%) T48",52.7%
same,ratio acK68- or acK122-MnSOD/MnSOD,[3],decrease
